From ChEMBL document CHEMBL1201862, “PubChem BioAssay data set” (2004)
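A five-concentration, 48-hour dose response in 96-well plates underlies each endpoint, interpolated linearly between surrounding concentrations. Abbreviation: GI50, concentration required for 50% inhibition of growth.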 Active and inactive are the calls of the source. No stated cut-off is given here; in the data, active = GI50 up to about 1.1 µM and inactive = higher.

Tests used:
Experiment in all cases: NCI tumour cell line growth inhibition, 48 h
PC-3 = system: PC-3
T47D = system: T47D
COLO 205 = system: COLO 205
OVCAR-3 = system: OVCAR-3
U-251 = system: U-251
SK-MEL-28 = system: SK-MEL-28
HT-29 = system: HT-29
M14 = system: M14
HCT-15 = system: HCT-15
OVCAR-4 = system: OVCAR-4
Malme-3M = system: Malme-3M
NCI-H23 = system: NCI-H23
SK-OV-3 = system: SK-OV-3
OVCAR-8 = system: OVCAR-8
ACHN = system: ACHN
UACC-62 = system: UACC-62
RPMI-8226 = system: RPMI-8226
A549 = system: A549
A498 = system: A498
SF-268 = system: SF-268
SK-MEL-5 = system: SK-MEL-5
SK-MEL-2 = system: SK-MEL-2
K562 = system: K562
SN12C = system: SN12C
CCRF-CEM = system: CCRF-CEM
MDA-MB-231 = system: MDA-MB-231
HCT-116 = system: HCT-116
KM12 = system: KM12
OVCAR-5 = system: OVCAR-5
NCI/ADR-RES = system: NCI/ADR-RES
MDA-N = system: MDA-N
MOLT-4 = system: MOLT-4
786-0 = system: 786-0
MCF7 = system: MCF7
BT-549 = system: BT-549
CAKI-1 = system: CAKI-1
MDA-MB-435 = system: MDA-MB-435
UO-31 = system: UO-31
TK-10 = system: TK-10
UACC-257 = system: UACC-257
HOP-62 = system: HOP-62
SNB-75 = system: SNB-75
NCI-H226 = system: NCI-H226
SNB-19 = system: SNB-19
Hs-578T = system: Hs-578T
DU-145 = system: DU-145
RXF 393 = system: RXF 393
NCI-H522 = system: NCI-H522
LOX IMVI = system: LOX IMVI
SW-620 = system: SW-620
IGROV-1 = system: IGROV-1
NCI-H460 = system: NCI-H460
EKVX = system: EKVX
SF-539 = system: SF-539
HL-60 = system: HL-60
HOP-92 = system: HOP-92
HCC 2998 = system: HCC 2998
SF-295 = system: SF-295

COC(=O)C(NC(=O)C(CC(=O)OC(C)(C)C)NC(=O)OC(C)(C)C)C(O)c1ccccc1 (centres undefined) was tested. Which GI50 (PC-3) did it give?
The GI50 was > 100 µM (inactive).

And the GI50 (T47D)?
Its GI50 is > 100 µM (inactive).

And the GI50 (COLO 205)?
Its GI50 is > 100 µM (inactive).

What about the GI50 (OVCAR-3) of the same compound?
The GI50 was > 100 µM (inactive).

And the GI50 (U-251)?
The GI50 was > 100 µM (inactive).

And the GI50 (SK-MEL-28)?
The GI50 was > 100 µM (inactive).

And the GI50 (HT-29)?
Its GI50 is > 100 µM (inactive).

What about the GI50 (M14) of the same compound?
The GI50 was > 100 µM (inactive).

What about the GI50 (HCT-15) of the same compound?
Its GI50 is greater than 100 µM.

And the GI50 (OVCAR-4)?
The GI50 was > 100 µM (inactive).

And the GI50 (Malme-3M)?
Its GI50 is > 100 µM (inactive).

What about the GI50 (NCI-H23) of the same compound?
Its GI50 is > 100 µM (inactive).

And the GI50 (SK-OV-3)?
The GI50 was 16.1 µM (inactive).

What about the GI50 (OVCAR-8) of the same compound?
The GI50 was > 100 µM (inactive).

And the GI50 (ACHN)?
The GI50 was > 100 µM (inactive).

And the GI50 (UACC-62)?
The GI50 was 3.92 µM (inactive).

What about the GI50 (RPMI-8226) of the same compound?
The GI50 was > 100 µM (inactive).

And the GI50 (A549)?
Its GI50 is > 100 µM (inactive).

And the GI50 (A498)?
The GI50 was > 100 µM (inactive).

What about the GI50 (SF-268) of the same compound?
Its GI50 is > 100 µM (inactive).

And the GI50 (SK-MEL-5)?
The GI50 was > 100 µM (inactive).

What about the GI50 (SK-MEL-2) of the same compound?
The GI50 was > 100 µM (inactive).

What about the GI50 (K562) of the same compound?
The GI50 was > 100 µM (inactive).

What about the GI50 (SN12C) of the same compound?
The GI50 was > 100 µM (inactive).

What about the GI50 (CCRF-CEM) of the same compound?
Its GI50 is > 100 µM (inactive).

And the GI50 (MDA-MB-231)?
The GI50 was > 100 µM (inactive).

And the GI50 (HCT-116)?
The GI50 was > 100 µM (inactive).

And the GI50 (KM12)?
The GI50 was > 100 µM (inactive).

And the GI50 (OVCAR-5)?
The GI50 was > 100 µM (inactive).

What about the GI50 (NCI/ADR-RES) of the same compound?
Its GI50 is > 100 µM (inactive).

And the GI50 (MDA-N)?
Its GI50 is > 100 µM (inactive).

And the GI50 (MOLT-4)?
Its GI50 is > 100 µM (inactive).

What about the GI50 (786-0) of the same compound?
The GI50 was > 100 µM (inactive).

And the GI50 (MCF7)?
The GI50 was > 100 µM (inactive).

What about the GI50 (BT-549) of the same compound?
Its GI50 is > 100 µM (inactive).

What about the GI50 (CAKI-1) of the same compound?
Its GI50 is > 100 µM (inactive).

And the GI50 (MDA-MB-435)?
Its GI50 is > 100 µM (inactive).

And the GI50 (UO-31)?
The GI50 was > 100 µM (inactive).

And the GI50 (TK-10)?
Its GI50 is > 100 µM (inactive).

What about the GI50 (UACC-257) of the same compound?
The GI50 was 74.5 µM (inactive).

And the GI50 (HOP-62)?
Its GI50 is > 100 µM (inactive).

And the GI50 (SNB-75)?
The GI50 was > 100 µM (inactive).

What about the GI50 (NCI-H226) of the same compound?
The GI50 was > 100 µM (inactive).

And the GI50 (SNB-19)?
Its GI50 is > 100 µM (inactive).

What about the GI50 (Hs-578T) of the same compound?
Its GI50 is > 100 µM (inactive).

What about the GI50 (DU-145) of the same compound?
The GI50 was > 100 µM (inactive).

And the GI50 (RXF 393)?
The GI50 was 97.5 µM (inactive).

And the GI50 (NCI-H522)?
Its GI50 is > 100 µM (inactive).

And the GI50 (LOX IMVI)?
Its GI50 is > 100 µM (inactive).

What about the GI50 (SW-620) of the same compound?
The GI50 was > 100 µM (inactive).

And the GI50 (IGROV-1)?
The GI50 was > 100 µM (inactive).

And the GI50 (NCI-H460)?
The GI50 was > 100 µM (inactive).

And the GI50 (EKVX)?
Its GI50 is > 100 µM (inactive).

What about the GI50 (SF-539) of the same compound?
Its GI50 is > 100 µM (inactive).

Which GI50 (T47D) does the source give for N#Cc1c(-c2ccccc2)nc(-c2ccccc2)sc1=S here?
Its GI50 is > 100 µM (inactive).

And the GI50 (COLO 205)?
The GI50 was > 100 µM (inactive).

What about the GI50 (OVCAR-3) of the same compound?
Its GI50 is > 100 µM (inactive).

What about the GI50 (U-251) of the same compound?
The GI50 was > 100 µM (inactive).

What about the GI50 (SK-MEL-28) of the same compound?
The GI50 was > 100 µM (inactive).

And the GI50 (HT-29)?
Its GI50 is > 100 µM (inactive).

What about the GI50 (M14) of the same compound?
The GI50 was > 100 µM (inactive).

And the GI50 (HCT-15)?
The GI50 was greater than 100 µM.

What about the GI50 (OVCAR-4) of the same compound?
The GI50 was > 100 µM (inactive).

And the GI50 (HL-60)?
The GI50 was > 100 µM (inactive).

What about the GI50 (Malme-3M) of the same compound?
Its GI50 is > 100 µM (inactive).

And the GI50 (NCI-H23)?
The GI50 was > 100 µM (inactive).

And the GI50 (SK-OV-3)?
Its GI50 is > 100 µM (inactive).

What about the GI50 (OVCAR-8) of the same compound?
The GI50 was > 100 µM (inactive).

What about the GI50 (ACHN) of the same compound?
Its GI50 is > 100 µM (inactive).

What about the GI50 (UACC-62) of the same compound?
Its GI50 is > 100 µM (inactive).

And the GI50 (RPMI-8226)?
The GI50 was > 100 µM (inactive).

What about the GI50 (A549) of the same compound?
Its GI50 is > 100 µM (inactive).

What about the GI50 (A498) of the same compound?
Its GI50 is > 100 µM (inactive).

And the GI50 (SF-268)?
The GI50 was > 100 µM (inactive).

What about the GI50 (SK-MEL-5) of the same compound?
Its GI50 is > 100 µM (inactive).

What about the GI50 (SK-MEL-2) of the same compound?
Its GI50 is > 100 µM (inactive).

And the GI50 (K562)?
The GI50 was > 100 µM (inactive).

What about the GI50 (SN12C) of the same compound?
The GI50 was > 100 µM (inactive).

And the GI50 (CCRF-CEM)?
The GI50 was 49.2 µM (inactive).

What about the GI50 (MDA-MB-231) of the same compound?
The GI50 was > 100 µM (inactive).

And the GI50 (HCT-116)?
The GI50 was > 100 µM (inactive).

And the GI50 (KM12)?
Its GI50 is > 100 µM (inactive).

What about the GI50 (OVCAR-5) of the same compound?
The GI50 was > 100 µM (inactive).

And the GI50 (NCI/ADR-RES)?
The GI50 was > 100 µM (inactive).

And the GI50 (MDA-N)?
Its GI50 is > 100 µM (inactive).

And the GI50 (786-0)?
The GI50 was > 100 µM (inactive).

What about the GI50 (MCF7) of the same compound?
Its GI50 is > 100 µM (inactive).

And the GI50 (BT-549)?
The GI50 was > 100 µM (inactive).

What about the GI50 (CAKI-1) of the same compound?
Its GI50 is > 100 µM (inactive).

What about the GI50 (HOP-92) of the same compound?
Its GI50 is > 100 µM (inactive).

And the GI50 (MDA-MB-435)?
Its GI50 is > 100 µM (inactive).

And the GI50 (UO-31)?
Its GI50 is > 100 µM (inactive).

And the GI50 (TK-10)?
Its GI50 is > 100 µM (inactive).

And the GI50 (UACC-257)?
Its GI50 is > 100 µM (inactive).

And the GI50 (HOP-62)?
The GI50 was > 100 µM (inactive).

What about the GI50 (SNB-75) of the same compound?
The GI50 was > 100 µM (inactive).

And the GI50 (HCC 2998)?
Its GI50 is > 100 µM (inactive).

And the GI50 (NCI-H226)?
The GI50 was > 100 µM (inactive).

And the GI50 (SNB-19)?
The GI50 was > 100 µM (inactive).

And the GI50 (Hs-578T)?
Its GI50 is > 100 µM (inactive).

What about the GI50 (DU-145) of the same compound?
The GI50 was > 100 µM (inactive).

What about the GI50 (SF-295) of the same compound?
The GI50 was > 100 µM (inactive).

What about the GI50 (RXF 393) of the same compound?
Its GI50 is > 100 µM (inactive).

And the GI50 (LOX IMVI)?
The GI50 was > 100 µM (inactive).

And the GI50 (SW-620)?
Its GI50 is > 100 µM (inactive).

What about the GI50 (IGROV-1) of the same compound?
Its GI50 is > 100 µM (inactive).

And the GI50 (NCI-H460)?
Its GI50 is > 100 µM (inactive).

What about the GI50 (EKVX) of the same compound?
The GI50 was > 100 µM (inactive).

And the GI50 (SF-539)?
The GI50 was > 100 µM (inactive).
